# Tests used:
# Test in all cases: radiometric filter-binding kinase assay
# [1] = biological target: RPS6KA5 KD1 KD2 (human) (UniProt O75582)
# [2] = biological target: EPHB1 (human) (UniProt P54762)
# [3] = biological target: DYRK1A (human) (UniProt Q13627)
# [4] = biological target: TAOK1 (human) (UniProt Q7L7X3)
# [5] = biological target: MAPK11 (human) (UniProt Q15759)
# [6] = biological target: PAK4 (human) (UniProt O96013)
# [7] = biological target: EEF2K (human) (UniProt O00418)
# [8] = biological target: PRKCZ (human) (UniProt Q05513)
# [9] = biological target: NUAK1 (human) (UniProt O60285)
# [10] = biological target: MARK3 (human) (UniProt P27448)
# [11] = biological target: MAP3K9 (human) (UniProt P80192)
# [12] = biological target: HIPK3 (human) (UniProt Q9H422)
# [13] = test system: AKT1 (human), P31749 [S473D]
# [14] = biological target: EPHB3 (human) (UniProt P54753)
# [15] = biological target: MAPKAPK5 (human) (UniProt Q8IW41)
# [16] = biological target: MARK1 (human) (UniProt Q9P0L2)
# [17] = biological target: MAP2K6 (human) (UniProt P52564)
# [18] = biological target: BTK (human) (UniProt Q06187)
# [19] = biological target: DYRK3 (human) (UniProt O43781)
# [20] = biological target: DYRK2 (human) (UniProt Q92630)
# [21] = biological target: HIPK1 (human) (UniProt Q86Z02)
# [22] = biological target: MAPK13 (human) (UniProt O15264)
# [23] = biological target: CSNK2A1 (human) (UniProt P68400)
# [24] = biological target: HIPK2 (human) (UniProt Q9H2X6)
# [25] = biological target: PAK7 (human) (UniProt Q9P286)
# [26] = biological target: DAPK1 (human) (UniProt P53355)
# [27] = biological target: EPHA2 (human) (UniProt P29317)
# [28] = biological target: CaMK1 (human) (UniProt Q14012)
# [29] = biological target: NEK6 (human) (UniProt Q9HC98)
# [30] = biological target: IKBKE (human) (UniProt Q14164)
# [31] = biological target: ERBB4 (human) (UniProt Q15303)
# [32] = biological target: MST4 (human) (UniProt Q9P289)
# [33] = biological target: PAK6 (human) (UniProt Q9NQU5)
# [34] = test system: ROCK2 (rat); settings: accession and sequence are those of the human protein
# [35] = test system: LCK (mouse); settings: accession and sequence are those of the human protein
# [36] = biological target: MAPK14 (human) (UniProt Q16539)
# MAPK14 (human), sequence (Q16539 whole entry, looked up): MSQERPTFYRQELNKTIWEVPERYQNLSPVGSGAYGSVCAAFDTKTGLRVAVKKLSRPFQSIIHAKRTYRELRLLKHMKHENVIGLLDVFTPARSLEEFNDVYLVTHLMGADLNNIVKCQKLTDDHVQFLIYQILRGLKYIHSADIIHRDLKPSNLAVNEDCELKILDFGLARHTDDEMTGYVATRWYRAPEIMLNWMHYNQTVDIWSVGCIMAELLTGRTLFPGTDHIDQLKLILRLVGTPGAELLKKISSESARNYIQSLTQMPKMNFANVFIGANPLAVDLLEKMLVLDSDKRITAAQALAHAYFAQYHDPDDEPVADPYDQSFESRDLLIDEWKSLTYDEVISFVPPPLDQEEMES
# MST4 (human), sequence (Q9P289 whole entry, looked up): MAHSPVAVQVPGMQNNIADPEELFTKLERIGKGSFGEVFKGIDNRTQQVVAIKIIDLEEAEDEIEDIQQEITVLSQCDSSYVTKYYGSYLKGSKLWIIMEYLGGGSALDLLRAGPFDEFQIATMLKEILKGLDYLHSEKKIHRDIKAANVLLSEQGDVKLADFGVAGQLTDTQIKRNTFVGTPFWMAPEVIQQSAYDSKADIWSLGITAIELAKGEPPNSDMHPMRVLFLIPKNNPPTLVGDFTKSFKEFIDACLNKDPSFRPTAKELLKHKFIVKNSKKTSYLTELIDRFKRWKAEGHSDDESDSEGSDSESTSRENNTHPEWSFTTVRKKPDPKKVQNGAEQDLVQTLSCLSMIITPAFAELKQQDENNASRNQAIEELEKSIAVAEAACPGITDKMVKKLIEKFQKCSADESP
# HIPK2 (human), sequence (Q9H2X6 whole entry, looked up): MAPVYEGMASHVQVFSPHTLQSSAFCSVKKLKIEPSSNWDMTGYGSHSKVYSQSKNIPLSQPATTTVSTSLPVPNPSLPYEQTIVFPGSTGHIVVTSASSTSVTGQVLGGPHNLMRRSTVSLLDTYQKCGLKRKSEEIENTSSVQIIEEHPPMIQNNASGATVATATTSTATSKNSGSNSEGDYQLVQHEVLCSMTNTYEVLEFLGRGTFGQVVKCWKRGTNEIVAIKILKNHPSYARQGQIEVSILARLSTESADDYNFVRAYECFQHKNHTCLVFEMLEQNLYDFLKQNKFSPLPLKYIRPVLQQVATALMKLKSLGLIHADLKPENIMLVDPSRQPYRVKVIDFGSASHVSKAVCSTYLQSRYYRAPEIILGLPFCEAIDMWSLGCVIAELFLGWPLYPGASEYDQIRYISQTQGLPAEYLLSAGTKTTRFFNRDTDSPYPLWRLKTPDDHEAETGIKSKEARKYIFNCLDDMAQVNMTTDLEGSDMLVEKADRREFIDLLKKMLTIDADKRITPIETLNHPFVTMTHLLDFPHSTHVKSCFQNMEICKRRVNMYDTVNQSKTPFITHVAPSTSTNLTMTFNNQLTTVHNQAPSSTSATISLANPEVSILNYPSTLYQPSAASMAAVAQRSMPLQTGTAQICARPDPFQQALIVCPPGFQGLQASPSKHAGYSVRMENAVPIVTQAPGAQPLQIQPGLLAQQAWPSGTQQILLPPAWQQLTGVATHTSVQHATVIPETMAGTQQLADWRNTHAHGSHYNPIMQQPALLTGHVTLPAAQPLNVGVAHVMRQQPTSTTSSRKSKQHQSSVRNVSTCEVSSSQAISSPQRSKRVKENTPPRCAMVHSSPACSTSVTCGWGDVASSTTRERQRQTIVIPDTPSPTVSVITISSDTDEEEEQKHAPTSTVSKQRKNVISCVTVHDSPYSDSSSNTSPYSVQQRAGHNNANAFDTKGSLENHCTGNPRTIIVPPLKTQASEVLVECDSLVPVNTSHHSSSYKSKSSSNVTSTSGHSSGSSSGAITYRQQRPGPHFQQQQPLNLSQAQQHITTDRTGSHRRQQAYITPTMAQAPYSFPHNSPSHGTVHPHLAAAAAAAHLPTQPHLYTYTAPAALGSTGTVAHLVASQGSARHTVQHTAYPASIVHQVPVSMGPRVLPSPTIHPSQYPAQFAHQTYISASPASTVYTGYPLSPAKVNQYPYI
# DAPK1 (human), sequence (P53355 whole entry, looked up): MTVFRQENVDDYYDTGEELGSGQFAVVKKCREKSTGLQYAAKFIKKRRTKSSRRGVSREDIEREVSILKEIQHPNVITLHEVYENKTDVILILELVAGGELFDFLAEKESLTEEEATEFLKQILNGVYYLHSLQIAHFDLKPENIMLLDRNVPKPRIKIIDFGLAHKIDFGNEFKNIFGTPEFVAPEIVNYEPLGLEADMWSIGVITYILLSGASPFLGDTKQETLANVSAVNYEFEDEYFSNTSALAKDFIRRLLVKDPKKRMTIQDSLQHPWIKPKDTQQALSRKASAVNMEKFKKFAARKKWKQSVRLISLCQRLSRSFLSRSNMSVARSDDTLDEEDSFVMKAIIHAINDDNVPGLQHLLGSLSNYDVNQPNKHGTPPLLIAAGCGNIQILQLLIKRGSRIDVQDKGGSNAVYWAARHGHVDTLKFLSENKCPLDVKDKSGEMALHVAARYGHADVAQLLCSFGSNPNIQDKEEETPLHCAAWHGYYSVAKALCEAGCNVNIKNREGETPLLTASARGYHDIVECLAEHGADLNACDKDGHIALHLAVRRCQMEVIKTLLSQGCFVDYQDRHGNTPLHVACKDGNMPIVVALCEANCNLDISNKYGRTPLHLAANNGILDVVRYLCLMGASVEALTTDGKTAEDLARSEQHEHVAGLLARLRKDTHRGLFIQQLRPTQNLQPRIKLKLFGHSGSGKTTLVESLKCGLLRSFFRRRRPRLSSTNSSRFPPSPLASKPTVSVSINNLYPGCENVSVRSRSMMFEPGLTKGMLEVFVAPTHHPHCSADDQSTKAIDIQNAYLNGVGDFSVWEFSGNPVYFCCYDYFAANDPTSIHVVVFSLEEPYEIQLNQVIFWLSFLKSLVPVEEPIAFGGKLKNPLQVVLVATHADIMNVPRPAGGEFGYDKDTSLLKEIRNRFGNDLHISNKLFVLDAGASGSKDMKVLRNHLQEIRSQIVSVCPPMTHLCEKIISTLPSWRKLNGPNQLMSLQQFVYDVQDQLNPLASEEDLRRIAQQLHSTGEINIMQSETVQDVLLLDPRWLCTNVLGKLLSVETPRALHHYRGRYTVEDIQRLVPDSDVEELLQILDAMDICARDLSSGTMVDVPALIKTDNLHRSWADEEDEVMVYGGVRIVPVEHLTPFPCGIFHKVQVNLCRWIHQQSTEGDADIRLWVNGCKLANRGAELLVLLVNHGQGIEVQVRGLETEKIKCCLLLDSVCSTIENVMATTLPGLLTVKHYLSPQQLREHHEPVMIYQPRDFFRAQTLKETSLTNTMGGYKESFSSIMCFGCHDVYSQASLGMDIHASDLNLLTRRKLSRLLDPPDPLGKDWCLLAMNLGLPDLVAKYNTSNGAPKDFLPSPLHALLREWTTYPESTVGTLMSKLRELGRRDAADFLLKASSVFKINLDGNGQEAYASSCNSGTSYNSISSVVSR
# EPHB3 (human), sequence (P54753 whole entry, looked up): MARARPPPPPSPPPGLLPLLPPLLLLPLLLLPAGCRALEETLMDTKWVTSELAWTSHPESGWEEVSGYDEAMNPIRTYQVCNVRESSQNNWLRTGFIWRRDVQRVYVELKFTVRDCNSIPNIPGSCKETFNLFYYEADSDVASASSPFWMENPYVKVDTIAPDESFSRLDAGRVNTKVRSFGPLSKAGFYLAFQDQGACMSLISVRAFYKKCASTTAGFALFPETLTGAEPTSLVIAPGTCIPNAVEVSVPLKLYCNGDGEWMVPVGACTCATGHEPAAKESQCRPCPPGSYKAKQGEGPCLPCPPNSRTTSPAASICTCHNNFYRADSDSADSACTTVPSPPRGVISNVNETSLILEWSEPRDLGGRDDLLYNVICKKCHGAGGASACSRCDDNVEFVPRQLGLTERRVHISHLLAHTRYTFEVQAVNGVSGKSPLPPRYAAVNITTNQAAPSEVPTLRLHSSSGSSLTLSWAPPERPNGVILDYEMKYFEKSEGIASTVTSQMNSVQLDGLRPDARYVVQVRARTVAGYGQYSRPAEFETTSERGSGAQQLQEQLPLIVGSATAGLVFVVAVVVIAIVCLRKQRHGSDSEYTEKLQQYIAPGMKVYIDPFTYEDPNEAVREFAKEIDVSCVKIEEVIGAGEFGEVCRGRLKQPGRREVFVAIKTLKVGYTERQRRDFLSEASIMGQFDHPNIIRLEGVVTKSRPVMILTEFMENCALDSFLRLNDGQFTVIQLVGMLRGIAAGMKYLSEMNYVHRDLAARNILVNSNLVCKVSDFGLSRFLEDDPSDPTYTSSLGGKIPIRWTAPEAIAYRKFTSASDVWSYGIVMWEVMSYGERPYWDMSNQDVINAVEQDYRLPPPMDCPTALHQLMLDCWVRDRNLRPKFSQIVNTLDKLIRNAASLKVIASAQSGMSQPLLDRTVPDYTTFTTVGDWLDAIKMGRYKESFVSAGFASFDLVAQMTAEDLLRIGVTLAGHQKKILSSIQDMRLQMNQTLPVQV
# DYRK3 (human), sequence (O43781 whole entry, looked up): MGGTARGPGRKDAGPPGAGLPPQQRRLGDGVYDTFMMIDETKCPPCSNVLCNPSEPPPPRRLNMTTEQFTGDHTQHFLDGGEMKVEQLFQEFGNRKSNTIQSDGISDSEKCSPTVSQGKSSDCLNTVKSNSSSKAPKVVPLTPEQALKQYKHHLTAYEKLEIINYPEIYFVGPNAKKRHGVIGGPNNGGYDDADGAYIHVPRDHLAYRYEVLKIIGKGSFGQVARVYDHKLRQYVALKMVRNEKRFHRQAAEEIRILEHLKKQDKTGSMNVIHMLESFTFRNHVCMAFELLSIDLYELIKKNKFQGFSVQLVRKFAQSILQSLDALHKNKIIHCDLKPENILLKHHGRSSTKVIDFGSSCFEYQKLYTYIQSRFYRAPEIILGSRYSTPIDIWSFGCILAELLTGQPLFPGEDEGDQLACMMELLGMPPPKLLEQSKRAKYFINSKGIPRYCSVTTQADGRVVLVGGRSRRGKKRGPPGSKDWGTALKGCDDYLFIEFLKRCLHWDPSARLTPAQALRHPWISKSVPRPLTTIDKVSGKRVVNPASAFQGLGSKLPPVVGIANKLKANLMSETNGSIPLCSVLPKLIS
smiles,measurement,setting,value
CCn1c(-c2nonc2N)nc2cncc(CNC3CCNCC3)c21,residual activity,[1]; compound 0.1 µM,22%
same,residual activity,[1]; compound 1.0 µM,5%
same,residual activity,[1]; compound 10.0 µM,1%
same,residual activity,[2]; compound 0.1 µM,92%
same,residual activity,[2]; compound 1.0 µM,99%
same,residual activity,[2]; compound 10.0 µM,82%
same,residual activity,[3]; compound 0.1 µM,92%
same,residual activity,[3]; compound 1.0 µM,73%
same,residual activity,[3]; compound 10.0 µM,35%
same,residual activity,[4]; compound 0.1 µM,100%
same,residual activity,[4]; compound 1.0 µM,108%
same,residual activity,[4]; compound 10.0 µM,104%
same,residual activity,[5]; compound 0.1 µM,102%
same,residual activity,[5]; compound 1.0 µM,96%
same,residual activity,[5]; compound 10.0 µM,89%
same,residual activity,[6]; compound 1.0 µM,96%
same,residual activity,[6]; compound 10.0 µM,79%
same,residual activity,[7]; compound 0.1 µM,118%
same,residual activity,[7]; compound 10.0 µM,117%
same,residual activity,[8]; compound 0.1 µM,94%
same,residual activity,[8]; compound 1.0 µM,71%
same,residual activity,[8]; compound 10.0 µM,25%
same,residual activity,[9]; compound 0.1 µM,101%
same,residual activity,[9]; compound 1.0 µM,91%
same,residual activity,[9]; compound 10.0 µM,59%
same,residual activity,[10]; compound 0.1 µM,88%
same,residual activity,[10]; compound 1.0 µM,87%
same,residual activity,[10]; compound 10.0 µM,56%
same,residual activity,[11]; compound 0.1 µM,105%
same,residual activity,[11]; compound 1.0 µM,104%
same,residual activity,[11]; compound 10.0 µM,99%
same,residual activity,[12]; compound 0.1 µM,99%
same,residual activity,[12]; compound 1.0 µM,95%
same,residual activity,[12]; compound 10.0 µM,84%
same,residual activity,[13]; compound 0.1 µM,48%
same,residual activity,[13]; compound 1.0 µM,16%
same,residual activity,[13]; compound 10.0 µM,4%
same,residual activity,[14]; compound 0.1 µM,81%
same,residual activity,[14]; compound 1.0 µM,99%
same,residual activity,[14]; compound 10.0 µM,83%
same,residual activity,[15]; compound 0.1 µM,94%
same,residual activity,[15]; compound 1.0 µM,95%
same,residual activity,[15]; compound 10.0 µM,96%
same,residual activity,[16]; compound 0.1 µM,85%
same,residual activity,[16]; compound 1.0 µM,95%
same,residual activity,[16]; compound 10.0 µM,71%
same,residual activity,[17]; compound 0.1 µM,89%
same,residual activity,[17]; compound 1.0 µM,90%
same,residual activity,[17]; compound 10.0 µM,96%
same,residual activity,[18]; compound 0.1 µM,92%
same,residual activity,[18]; compound 1.0 µM,93%
same,residual activity,[18]; compound 10.0 µM,112%
same,residual activity,[19]; compound 0.1 µM,107%
same,residual activity,[19]; compound 1.0 µM,93%
same,residual activity,[19]; compound 10.0 µM,72%
same,residual activity,[20]; compound 0.1 µM,87%
same,residual activity,[20]; compound 1.0 µM,89%
same,residual activity,[20]; compound 10.0 µM,53%
same,residual activity,[21]; compound 0.1 µM,107%
same,residual activity,[21]; compound 1.0 µM,107%
same,residual activity,[21]; compound 10.0 µM,84%
same,residual activity,[22]; compound 0.1 µM,100%
same,residual activity,[22]; compound 1.0 µM,99%
same,residual activity,[22]; compound 10.0 µM,88%
same,residual activity,[23]; compound 0.1 µM,71%
same,residual activity,[23]; compound 1.0 µM,74%
same,residual activity,[23]; compound 10.0 µM,86%
same,residual activity,[24]; compound 0.1 µM,112%
same,residual activity,[24]; compound 1.0 µM,82%
same,residual activity,[24]; compound 10.0 µM,43%
same,residual activity,[25]; compound 0.1 µM,93%
same,residual activity,[25]; compound 1.0 µM,100%
same,residual activity,[25]; compound 10.0 µM,98%
same,residual activity,[26]; compound 0.1 µM,111%
same,residual activity,[26]; compound 1.0 µM,84%
same,residual activity,[26]; compound 10.0 µM,35%
same,residual activity,[27]; compound 0.1 µM,119%
same,residual activity,[27]; compound 1.0 µM,114%
same,residual activity,[27]; compound 10.0 µM,103%
same,residual activity,[28]; compound 0.1 µM,119%
same,residual activity,[28]; compound 1.0 µM,109%
same,residual activity,[28]; compound 10.0 µM,109%
same,residual activity,[29]; compound 0.1 µM,103%
same,residual activity,[29]; compound 1.0 µM,101%
same,residual activity,[29]; compound 10.0 µM,102%
same,residual activity,[30]; compound 0.1 µM,111%
same,residual activity,[30]; compound 1.0 µM,110%
same,residual activity,[30]; compound 10.0 µM,115%
same,residual activity,[31]; compound 0.1 µM,112%
same,residual activity,[31]; compound 1.0 µM,104%
same,residual activity,[32]; compound 0.1 µM,91%
same,residual activity,[32]; compound 1.0 µM,81%
same,residual activity,[32]; compound 10.0 µM,91%
same,residual activity,[33]; compound 0.1 µM,103%
same,residual activity,[33]; compound 1.0 µM,94%
same,residual activity,[33]; compound 10.0 µM,93%
same,residual activity,[34]; compound 0.1 µM,31%
same,residual activity,[34]; compound 1.0 µM,23%
same,residual activity,[34]; compound 10.0 µM,17%
same,residual activity,[35]; compound 0.1 µM,102%
same,residual activity,[35]; compound 1.0 µM,99%
same,residual activity,[35]; compound 10.0 µM,94%
same,residual activity,[36]; compound 0.1 µM,101%
same,residual activity,[36]; compound 1.0 µM,95%
same,residual activity,[36]; compound 10.0 µM,94%
